Results: patent US12655116B2, “Substituted isophthalic acid diamides” (Bayer Aktiengesellschaft, priority 2020, dated 2026)

Columns and labels:
[1] = tested on: VIOTR; test: Pre-emergence herbicidal action against VIOTR; assay type: in vivo, Viola tricolor
How it was run: (§1)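 Visual rating at 3 weeks vs untreated pots; 0–100% scale, 100% = plants died. Treatment: aqueous WP/EC spray onto covering soil, 600–800 l/ha, 0.2% wetter, seeds in sandy loam.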

[2] = tested on: ALOMY; test: Pre-emergence herbicidal action against ALOMY; assay type: in vivo, Alopecurus myosuroides; settings: 80 g/ha, pre-emergence, scored visually after 3 weeks vs untreated controls (100% = plants have died, 0% = like control plants)
How it was run: as §1

[3] = tested on: AVEFA; test: Pre-emergence herbicidal action against AVEFA; assay type: in vivo, Avena fatua; settings: 80 g/ha, pre-emergence
How it was run: as §1

[4] = tested on: ALOMY; test: Post-emergence herbicidal action against ALOMY; assay type: in vivo, Alopecurus myosuroides; settings: visual assessment about 3 weeks after treatment vs untreated controls
How it was run: (§2)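 Weeds in sandy loam soil received a post-emergence spray at the one-leaf stage. Compounds were applied as WP or EC in water, 600 to 800 l/ha, with 0.2% wetting agent. Activity in % was judged visually after roughly 3 weeks against untreated plants.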

[5] = tested on: LOLRI; test: Pre-emergence herbicidal action against LOLRI; assay type: in vivo, Lolium rigidum; settings: 80 g/ha
How it was run: as §1

[6] = tested on: ABUTH; test: Post-emergence herbicidal action against ABUTH; assay type: in vivo, Abutilon theophrasti; settings: visual assessment about 3 weeks after treatment vs untreated controls
How it was run: as §2

[7] = tested on: VIOTR; test: Post-emergence herbicidal action against VIOTR; assay type: in vivo, Viola tricolor
How it was run: as §2

[8] = tested on: MATIN; test: Pre-emergence herbicidal action against MATIN; assay type: in vivo, Matricaria inodora
How it was run: as §1

[9] = tested on: AMARE; test: Post-emergence herbicidal action against AMARE; assay type: in vivo, Amaranthus retroflexus; settings: 20 g/ha, visual assessment about 3 weeks after treatment, 100% = plants have died, 0% = like control plants
How it was run: as §2

[10] = tested on: AMARE; test: Pre-emergence herbicidal action against AMARE; assay type: in vivo, Amaranthus retroflexus
How it was run: as §1

[11] = tested on: AVEFA; test: Post-emergence herbicidal action against AVEFA; assay type: in vivo, Avena fatua; settings: 20 g/ha, visual assessment about 3 weeks after treatment, 100% = plants have died, 0% = like control plants
How it was run: as §2

[12] = tested on: MATIN; test: Post-emergence herbicidal action against MATIN; assay type: in vivo, Matricaria inodora
How it was run: as §2

[13] = tested on: SETVI; test: Pre-emergence herbicidal action against SETVI; assay type: in vivo, Setaria viridis
How it was run: as §1

[14] = tested on: ABUTH; test: Pre-emergence herbicidal action against ABUTH; assay type: in vivo, Abutilon theophrasti; settings: for Pre-emergence action against ABUTH (herbicidal activity): 80 g/ha, scored visually after 3 weeks vs untreated controls (100% = plants have died, 0% = like control plants); for Pre-emergence action against ABUTH (herbicidal activity in percent): dosage 20 g/ha, scored visually after 3 weeks vs untreated controls, 100% = plants have died, 0% = like control plants
How it was run: as §1

[15] = tested on: DIGSA; test: Post-emergence herbicidal action against DIGSA; assay type: in vivo, Digitaria sanguinalis
How it was run: as §2

[16] = tested on: SETVI; test: Post-emergence herbicidal action against SETVI; assay type: in vivo, Setaria viridis
How it was run: as §2

[17] = tested on: DIGSA; test: Pre-emergence herbicidal action against DIGSA; assay type: in vivo, Digitaria sanguinalis
How it was run: as §1

[18] = tested on: ECHCG; test: Pre-emergence herbicidal action against ECHCG; assay type: in vivo, Echinochloa crus-galli; settings: 80 g/ha
How it was run: as §1

[19] = tested on: POLCO; test: Pre-emergence herbicidal action against POLCO; assay type: in vivo, Polygonum convolvulus; settings: dosage 80 g/ha
How it was run: as §1

[20] = tested on: PHBPU; test: Pre-emergence herbicidal action against PHBPU; assay type: in vivo, Pharbitis purpurea; settings: dosage 80 g/ha
How it was run: as §1

[21] = tested on: PHBPU; test: Post-emergence herbicidal action against PHBPU; assay type: in vivo, Pharbitis purpurea
How it was run: as §2

[22] = tested on: ECHCG; test: Post-emergence herbicidal action against ECHCG; assay type: in vivo, Echinochloa crus-galli
How it was run: as §2

[23] = 20 g/ha, scored visually after 3 weeks vs untreated controls, 100% = plants have died, 0% = like control plants
[24] = 80 g/ha, scored visually after 3 weeks vs untreated controls (100% = plants have died, 0% = like control plants)

Row | SMILES | Pre-emergence action against VIOTR in % ([1]; dosage 20 g/ha) [%] | Pre-emergence action against VIOTR in % ([1]; dosage 80 g/ha) [%] | Pre-emergence action against ALOMY (herbicidal activity) [2] [%] | Pre-emergence action against AVEFA in % [3] [%] | Post-emergence action against ALOMY in % ([4]; dosage 5 g/ha) [%] | Post-emergence action against ALOMY in % ([4]; dosage 20 g/ha) [%] | Pre-emergence action against LOLRI in % [5] [%] | Post-emergence action against VIOTR in % ([7]; 20 g/ha) [%] | Pre-emergence action against MATIN in % ([8]; dosage 20 g/ha) [%] | Pre-emergence action against MATIN in % ([8]; dosage 80 g/ha) [%] | Pre-emergence action against AMARE in % [10, 23] [%] | Pre-emergence action against AMARE in % [10, 24] [%] | Post-emergence action at 20 g/ha against AVEFA in % [11] [%] | Post-emergence action against MATIN in % ([12]; dosage 5 g/ha) [%] | Post-emergence action against MATIN in % ([12]; dosage 20 g/ha) [%] | Pre-emergence action against SETVI in % ([13]; dosage 20 g/ha) [%] | Pre-emergence action against SETVI in % ([13]; dosage 80 g/ha) [%] | Pre-emergence action against ABUTH (herbicidal activity) [14] [%] | Pre-emergence action against ABUTH (herbicidal activity in percent) [14] [%] | Post-emergence action against SETVI in % ([16]; dosage 5 g/ha) [%] | further results
1 | CCn1nnnc1NC(=O)c1ccc(I)c(C(=O)NC)c1Cl [Example 2-195] | 100 | 100 | 100 | 80 | 80 | 100 | 90 | 100 | 100 | 100 | 100 | 100 | 80 | 80 | 90 | 80 | 100 | 100 | 100 | 90 | Post-emergence action against ABUTH in % ([6]; dosage 5 g/ha): 100%; Post-emergence action against ABUTH in % ([6]; dosage 20 g/ha): 100%; Post-emergence action against VIOTR in % ([7]; 5 g/ha): 100%; Post-emergence action at 20 g/ha against AMARE in % [9]: 100%; Post-emergence action against DIGSA in % ([15]; 5 g/ha): 80%; Post-emergence action against DIGSA ([15]; 20 g/ha): 90%; Post-emergence action against SETVI in % ([16]; dosage 20 g/ha): 100%; Pre-emergence action against DIGSA in % ([17]; dosage 20 g/ha): 90%; Pre-emergence action against DIGSA in % ([17]; dosage 80 g/ha): 100%; Pre-emergence action against ECHCG in % [18]: 80%; Pre-emergence action against POLCO in % [19]: 80%
2 | CCn1nnnc1NC(=O)c1ccc(Br)c(C(=O)NCC(F)F)c1Cl [Example 2-182] | 100 | 100 | 80 | 90 | 80 | 100 | 80 | 100 | 90 | 100 | 100 | 100 | 80 | 90 | 90 | 90 | 100 | 100 | 100 | 90 | Pre-emergence action against PHBPU in % [20]: 90%; Post-emergence action against PHBPU in % ([21]; dosage 5 g/ha): 80%; Post-emergence action against PHBPU in % ([21]; dosage 20 g/ha): 90%; Post-emergence action against ECHCG in % ([22]; dosage 5 g/ha): 90%; Post-emergence action against ECHCG in % ([22]; dosage 20 g/ha): 90%; Post-emergence action against SETVI in % ([16]; dosage 20 g/ha): 100%; Pre-emergence action against DIGSA in % ([17]; dosage 20 g/ha): 100%; Pre-emergence action against DIGSA in % ([17]; dosage 80 g/ha): 100%; Pre-emergence action against ECHCG in % [18]: 100%; Pre-emergence action against POLCO in % [19]: 90%
